≈ marks a conversion by molar mass, not a printed value.
How the values were obtained:
Staphylococcus aureus [1] = assay: Antibacterial activity against penicillin G sensitive Staphylococcus aureus X1.1.; type: functional
Haemophilus influenzae [2] = assay: Antibacterial activity against resistant Haemophilus influenzae 76.; type: functional
[3] = tested on: Staphylococcus epidermidis; assay: Antibacterial activity against Staph. epidermis EP11; type: functional
Staphylococcus aureus [4] = assay: Antibacterial activity against methicillin resistant Staphylococcus aureus X400; type: functional
Streptococcus = assay: Antibacterial activity against Streptococcus group D X66.; type: functional
Staphylococcus aureus [5] = assay: Antibacterial activity against penicillin G sensitive Staphylococcus aureus V41; type: functional
Staphylococcus aureus [6] = assay: Antibacterial activity against methicillin resistant Staphylococcus aureus S13E.; type: functional
Haemophilus influenzae [7] = assay: Antibacterial activity against sensitive Haemophilus influenzae C.L.; type: functional
Streptococcus pneumoniae [8] = assay: Antibacterial activity against Streptococcus pneumoniae Park.
Streptococcus pyogenes [9] = assay: Antibacterial activity against Streptococcus pyogenes C203.; type: functional
Staphylococcus aureus [10] = assay: Antibacterial activity in mice infected with Staphylococcus aureus 3055 by subcutaneous administration; type: functional
Staphylococcus aureus [11] = assay: Antibacterial activity in mice infected with Staphylococcus aureus 3055 by oral administration; type: functional
Streptococcus pneumoniae [12] = assay: Antibacterial activity in mice infected with Streptococcus pneumoniae Park1; type: functional
Streptococcus pneumoniae [13] = assay: Antibacterial activity in mice infected with Streptococcus pneumoniae Park1 by oral administration; type: functional
Streptococcus pyogenes [14] = assay: Antibacterial activity in mice infected with Streptococcus pyogenes C203 after oral administration; type: functional
Streptococcus pneumoniae [15] = assay: Antibacterial activity in mice infected with Streptococcus pneumoniae Park1 by subcutaneous administration; type: functional
Staphylococcus aureus [16] = assay: Antibacterial activity in mice infected with Staphylococcus aureus 3055; type: functional
Streptococcus pyogenes [17] = assay: Antibacterial activity in mice infected with Streptococcus pyogenes C203 after subcutaneous administration; type: functional
Streptococcus pyogenes [18] = assay: Antibacterial activity in mice infected with Streptococcus pyogenes C203; type: functional
Staphylococcus aureus [19] = assay: Antibacterial activity in mice infected with Staphylococcus aureus 3055 after oral administration; type: functional
Staphylococcus aureus [20] = assay: Antibacterial activity in mice infected with Staphylococcus aureus 3055 after subcutaneous administration; type: functional
Streptococcus pneumoniae [21] = assay: Antibacterial activity in mice infected with Streptococcus pneumoniae Park1 after subcutaneous administration; type: functional
Streptococcus pneumoniae [22] = assay: Antibacterial activity in mice infected with Streptococcus pneumoniae Park1 after oral administration; type: functional

Row | SMILES | MIC (Staphylococcus aureus [1]) [µg/mL] | MIC (Haemophilus influenzae [2]) [µg/mL] | MIC [3] [µg/mL] | MIC (Staphylococcus aureus [4]) [µg/mL] | MIC (Streptococcus) [µg/mL] | MIC (Staphylococcus aureus [5]) [µg/mL] | MIC (Staphylococcus aureus [6]) [µg/mL] | MIC (Haemophilus influenzae [7]) [µg/mL] | MIC (Streptococcus pneumoniae [8]) [µg/mL] | MIC (Streptococcus pyogenes [9]) [µg/mL] | further results
1 | CC1=C(C(=O)O)N2C(=O)C(NC(=O)[C@H](N)c3ccc4cc(Cl)ccc4c3)C2SC1 (stereo not given in full) | 0.25 (≈ 0.579 µM) | 2 (≈ 4.63 µM) | 4 (≈ 9.26 µM) | 64 (≈ 148 µM) | 64 (≈ 148 µM) | 8 (≈ 18.5 µM) | 8 (≈ 18.5 µM) | 32 (≈ 74.1 µM) | 0.25 (≈ 0.579 µM) | 0.06 (≈ 0.139 µM) | 
2 | CC1=C(C(=O)O)N2C(=O)C(NC(=O)[C@H](N)c3cccc4ccccc34)C2SC1 (stereo not given in full) | 1 (≈ 2.52 µM) | 2 (≈ 5.03 µM) | 8 (≈ 20.1 µM) | 64 (≈ 161 µM) | 128 (≈ 322 µM) | 32 (≈ 80.5 µM) | 32 (≈ 80.5 µM) | 8 (≈ 20.1 µM) | 2 (≈ 5.03 µM) | 2 (≈ 5.03 µM) | 
3 | CC1=C(C(=O)O)N2C(=O)C(NC(=O)[C@@H](N)c3cc4cc(Cl)ccc4s3)C2SC1 (stereo not given in full) | 0.25 (≈ 0.571 µM) | 4 (≈ 9.13 µM) | 2 (≈ 4.57 µM) |  |  | 8 (≈ 18.3 µM) | 16 (≈ 36.5 µM) | 64 (≈ 146 µM) | 0.25 (≈ 0.571 µM) | 0.125 (≈ 0.285 µM) | 
4 | COc1ccc2cc([C@@H](N)C(=O)NC3C(=O)N4C(C(=O)O)=C(C)CSC34)ccc2c1 (stereo not given in full) | 0.25 (≈ 0.585 µM) | 4 (≈ 9.36 µM) | 4 (≈ 9.36 µM) | 64 (≈ 150 µM) |  | 16 (≈ 37.4 µM) | 16 (≈ 37.4 µM) | 16 (≈ 37.4 µM) | 0.125 (≈ 0.292 µM) | 0.125 (≈ 0.292 µM) | 
5 | N[C@@H](C(=O)N[C@@H]1C(=O)N2C(C(=O)O)=C(Cl)CS[C@H]12)c1ccccc1 [CEFACLOR ANHYDROUS] |  |  |  |  |  |  |  |  |  |  | ED50 (Staphylococcus aureus [10]): 0.03 mg/kg; ED50 (Staphylococcus aureus [11]): 0.13 mg/kg; MIC (Streptococcus pneumoniae [12]): 2 µg/mL (≈ 5.44 µM); ED50 (Streptococcus pneumoniae [13]): 10.7 mg/kg; ED50 (Streptococcus pyogenes [14]): 0.8 mg/kg; ED50 (Streptococcus pneumoniae [15]): 11.5 mg/kg; MIC (Staphylococcus aureus [16]): 1 µg/mL (≈ 2.72 µM); ED50 (Streptococcus pyogenes [17]): 1.4 mg/kg; MIC (Streptococcus pyogenes [18]): 0.25 µg/mL (≈ 0.68 µM)
6 | CC1=C(C(=O)O)N2C(=O)C(NC(=O)[C@H](N)c3csc4cc(Cl)ccc34)C2SC1 (stereo not given in full) | 1 (≈ 2.28 µM) | 1 (≈ 2.28 µM) | 4 (≈ 9.13 µM) | 16 (≈ 36.5 µM) | 128 (≈ 292 µM) | 8 (≈ 18.3 µM) | 8 (≈ 18.3 µM) | 8 (≈ 18.3 µM) | 1 (≈ 2.28 µM) | 0.5 (≈ 1.14 µM) | 
7 | CC1=C(C(=O)O)N2C(=O)C(NC(=O)[C@H](N)c3csc4cc(F)ccc34)C2SC1 (stereo not given in full) |  |  | 4 (≈ 9.49 µM) |  | 128 (≈ 304 µM) |  | 8 (≈ 19 µM) |  | 0.5 (≈ 1.19 µM) |  | 
8 | CC1=C(C(=O)O)N2C(=O)C(NC(=O)[C@@H](N)c3csc4ccccc34)C2SC1 (stereo not given in full) | 1 (≈ 2.48 µM) | 0.5 (≈ 1.24 µM) |  |  | 128 (≈ 317 µM) |  |  | 2 (≈ 4.96 µM) | 0.5 (≈ 1.24 µM) | 0.5 (≈ 1.24 µM) | ED50 (Staphylococcus aureus [19]): 0.6 mg/kg; ED50 (Staphylococcus aureus [20]): 0.4 mg/kg; MIC (Streptococcus pneumoniae [12]): 1 µg/mL (≈ 2.48 µM); ED50 (Streptococcus pneumoniae [21]): 18 mg/kg; ED50 (Streptococcus pneumoniae [22]): 16 mg/kg; ED50 (Streptococcus pyogenes [14]): 1.7 mg/kg; MIC (Staphylococcus aureus [16]): 1 µg/mL (≈ 2.48 µM); ED50 (Streptococcus pyogenes [17]): 2.3 mg/kg; MIC (Streptococcus pyogenes [18]): 0.5 µg/mL (≈ 1.24 µM)
9 | CC1=C(C(=O)O)N2C(=O)C(NC(=O)[C@@H](N)c3cc4c(Cl)cccc4s3)C2SC1 (stereo not given in full) | 0.5 (≈ 1.14 µM) | 1 (≈ 2.28 µM) | 2 (≈ 4.57 µM) | 16 (≈ 36.5 µM) | 64 (≈ 146 µM) | 4 (≈ 9.13 µM) | 4 (≈ 9.13 µM) | 32 (≈ 73.1 µM) | 0.5 (≈ 1.14 µM) | 0.125 (≈ 0.285 µM) | 
10 | CC1=C(C(=O)O)N2C(=O)C(NC(=O)[C@H](N)c3csc4ccc(F)cc34)C2SC1 (stereo not given in full) | 1 (≈ 2.37 µM) | 4 (≈ 9.49 µM) | 8 (≈ 19 µM) | 64 (≈ 152 µM) | 128 (≈ 304 µM) | 8 (≈ 19 µM) | 8 (≈ 19 µM) | 4 (≈ 9.49 µM) | 1 (≈ 2.37 µM) | 0.25 (≈ 0.593 µM) | 
